Test results from patent US20250011368A1, “DLL3 TARGETING PEPTIDES AND CONSTRUCTS THEREOF” (MARIANA ONCOLOGY INC., priority 2023, published 2025).
Bridge positions count the residues as written; N and C are the ends. Square brackets hold non-standard residues; d marks the D form. Peptide text beside a SMILES is read from it. * marks the point of attachment. ξ: configuration not given here. X2 = O=C(O)CN1CCN(CC(=O)O)CCN(CC(=O)NCCOCCOCCOCCOCCOCCOCCOCCOCC(=O)*)CCN(CC(=O)O)CC1; DOTA = O=C(O)CN1CCN(CC(=O)O)CCN(CC(=O)*)CCN(CC(=O)O)CC1; Trp(5-OMe) = COc1ccc2[nH]cc(C[C@H](N)C(=O)O)c2c1; Trp(5-F) = N[C@@H](Cc1c[nH]c2ccc(F)cc12)C(=O)O; Trp(7-aza) = N[C@@H](Cc1c[nH]c2ncccc12)C(=O)O; 1Nal = N[C@@H](Cc1cccc2ccccc12)C(=O)O; ξW = NC(Cc1c[nH]c2ccccc12)C(=O)O; Chg = N[C@H](C(=O)O)C1CCCCC1; αMeP = C[C@@]1(C(=O)O)CCCN1; Octanoyl = CCCCCCCC(=O)*; Dab = NCC[C@H](N)C(=O)O; Hexanoyl = CCCCCC(=O)*

Biological target: T1, human DLL3 (Homo sapiens, UniProt Q9NYJ7)
T1 sequence (Q9NYJ7 27-618): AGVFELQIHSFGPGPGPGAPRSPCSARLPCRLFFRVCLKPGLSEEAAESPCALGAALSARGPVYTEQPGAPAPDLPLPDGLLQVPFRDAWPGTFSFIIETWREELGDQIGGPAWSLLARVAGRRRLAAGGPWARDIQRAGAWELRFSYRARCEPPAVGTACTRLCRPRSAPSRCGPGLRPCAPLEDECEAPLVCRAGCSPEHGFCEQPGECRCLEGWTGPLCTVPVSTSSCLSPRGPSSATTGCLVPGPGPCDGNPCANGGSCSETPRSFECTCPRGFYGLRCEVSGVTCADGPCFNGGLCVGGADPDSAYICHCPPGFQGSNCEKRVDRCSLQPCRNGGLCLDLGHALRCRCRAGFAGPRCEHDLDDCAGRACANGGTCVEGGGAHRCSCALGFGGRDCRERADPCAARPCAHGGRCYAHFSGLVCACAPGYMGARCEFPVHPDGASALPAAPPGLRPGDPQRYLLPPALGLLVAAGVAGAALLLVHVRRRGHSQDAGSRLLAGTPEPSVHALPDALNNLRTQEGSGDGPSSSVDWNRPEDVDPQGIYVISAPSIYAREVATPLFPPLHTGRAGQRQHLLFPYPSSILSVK
Experiment: Affinity determination by Surface Plasmon Resonance (SPR)
Assay type: binding
Details: 25° C., biotinylated human DLL3 immobilized on streptavidin sensor chip, 1:1 binding model; read-out: SPR KD
Protocol: SPR studies were performed on the compounds disclosed herein using the following protocol.
Biotinylated target ligand human DLL3 was immobilized on a streptavidin sensor chip. A reference surface was set up for nonspecific binding and refractive index changes. For analysis of the kinetics of interactions, varying concentrations of samples were injected at a flow rate of 100 μL/minute using running buffer containing 20 mM phosphate buffer with 2.7 mM KCl, 137 mM NaCl, 0.05% Surfactant P20 and 2% DMSO. Sensorgram curves were fitted with 1:1 binding model, and affinity and kinetic parameters were obtained using Biacore Insight evaluation 4.0. software.

Structure (SMILES) | Kd [nM]
CC[C@H](C)[C@H](NC(=O)[C@@H](NC(=O)[C@H](Cc1c[nH]c2ccccc12)NC(C)=O)[C@@H](C)O)C(=O)N[C@H]1CSSC[C@@H](C(=O)N[C@@H](Cc2c[nH]c3ccccc23)C(=O)N2CCC[C@H]2C(=O)N[C@H](CCCCNC(=O)CN2CCN(CC(=O)O)CCN(CC(=O)O)CCN(CC(=O)O)CC2)C(N)=O)NC(=O)[C@H](CC(=O)O)NC(=O)[C@H](Cc2cnc[nH]2)NC(=O)[C@H](Cc2c[nH]c3ccc(OC)cc23)NC(=O)[C@H](CC(N)=O)NC(=O)[C@H](CC(N)=O)NC1=O [compound 86, Ac-W-T-I-C(3)-N-N-(5Ome-W)-H-D-C(3)-W-P-[D-Lys(DOTA)]-NH2] (Ac-WTICNN[Trp(5-OMe)]HDCWP[dK](DOTA)-NH2; disulfide 4-10) | 10 to 100
CC[C@H](C)[C@H](NC(=O)[C@@H](NC(=O)[C@H](Cc1c[nH]c2ccccc12)NC(C)=O)[C@@H](C)O)C(=O)N[C@H]1CSSC[C@@H](C(=O)N[C@@H](Cc2c[nH]c3ccc(OC)cc23)C(=O)N2CCC[C@H]2C(=O)N[C@H](CCCCNC(=O)CN2CCN(CC(=O)O)CCN(CC(=O)O)CCN(CC(=O)O)CC2)C(N)=O)NC(=O)[C@H](CC(=O)O)NC(=O)[C@H](Cc2cnc[nH]2)NC(=O)[C@H](Cc2c[nH]c3ccccc23)NC(=O)[C@H](CC(N)=O)NC(=O)[C@H](CC(N)=O)NC1=O [compound 88, Ac-W-T-I-C(3)-N-N-W-H-D-C(3)-(5Ome-W)-P-[D-Lys(DOTA)]-NH2] (Ac-WTICNNWHDC[Trp(5-OMe)]P[dK](DOTA)-NH2; disulfide 4-10) | 100 to 300
CCCCCC(=O)NCC[C@@H]1NC(=O)[C@@H](NC(=O)[C@@H](NC(=O)[C@@H](NC(=O)[C@H](Cc2c[nH]c3ccccc23)NC(C)=O)[C@@H](C)O)[C@@H](C)CC)CSSC[C@@H](C(=O)N[C@@H](Cc2c[nH]c3ccccc23)C(=O)N2CCC[C@H]2C(=O)N[C@H](CCCCNC(=O)CN2CCN(CC(=O)O)CCN(CC(=O)O)CCN(CC(=O)O)CC2)C(N)=O)NC(=O)[C@H](CC(=O)O)NC(=O)[C@H](Cc2cnc[nH]2)NC(=O)[C@H](Cc2c[nH]c3ccccc23)NC(=O)[C@H](CC(N)=O)NC1=O [compound 90, Ac-W-T-I-C(3)-(DAB-4-NHCOC5H11)-N-W-H-D-C(3)-W-P-[D-Lys(DOTA)]-NH2] (Ac-WTIC[Dab](Hexanoyl)NWHDCWP[dK](DOTA)-NH2; disulfide 4-10) | 10 to 100
CCCCCCCC(=O)NCC[C@@H]1NC(=O)[C@@H](NC(=O)[C@@H](NC(=O)[C@@H](NC(=O)[C@H](Cc2c[nH]c3ccccc23)NC(C)=O)[C@@H](C)O)[C@@H](C)CC)CSSC[C@@H](C(=O)N[C@@H](Cc2c[nH]c3ccccc23)C(=O)N2CCC[C@H]2C(=O)N[C@H](CCCCNC(=O)CN2CCN(CC(=O)O)CCN(CC(=O)O)CCN(CC(=O)O)CC2)C(N)=O)NC(=O)[C@H](CC(=O)O)NC(=O)[C@H](Cc2cnc[nH]2)NC(=O)[C@H](Cc2c[nH]c3ccccc23)NC(=O)[C@H](CC(N)=O)NC1=O [compound 91, Ac-W-T-I-C(3)-(DAB-4-NHCOC7H15)-N-W-H-D-C(3)-W-P-[D-Lys(DOTA)]-NH2] (Ac-WTIC[Dab](Octanoyl)NWHDCWP[dK](DOTA)-NH2; disulfide 4-10) | 10 to 100
CC[C@H](C)[C@H](NC(=O)[C@@H](NC(=O)[C@H](Cc1c[nH]c2ccc(F)cc12)NC(C)=O)[C@@H](C)O)C(=O)N[C@H]1CSSC[C@@H](C(=O)N[C@@H](Cc2c[nH]c3ccccc23)C(=O)N2CCC[C@H]2C(=O)N[C@H](CCCCNC(=O)CN2CCN(CC(=O)O)CCN(CC(=O)O)CCN(CC(=O)O)CC2)C(N)=O)NC(=O)[C@H](CC(=O)O)NC(=O)[C@H](Cc2c[nH]cn2)NC(=O)[C@H](Cc2c[nH]c3ccccc23)NC(=O)[C@H](CC(N)=O)NC(=O)[C@H](CC(N)=O)NC1=O [compound 100, Ac-(5Fluoro-W)-T-I-C(3)-N-N-W-H-D-C(3)-W-P-[D-Lys(DOTA)]-NH2] (Ac-[Trp(5-F)]TICNNWHDCWP[dK](DOTA)-NH2; disulfide 4-10) | < 1
CC[C@H](C)[C@H](NC(=O)[C@@H](NC(=O)[C@H](Cc1c[nH]c2ccccc12)NC(C)=O)[C@@H](C)O)C(=O)N[C@H]1CSSC[C@@H](C(=O)N[C@@H](Cc2c[nH]c3ccccc23)C(=O)N2CCC[C@@]2(C)C(=O)N[C@H](CCCCNC(=O)CN2CCN(CC(=O)O)CCN(CC(=O)O)CCN(CC(=O)O)CC2)C(N)=O)NC(=O)[C@H](CC(=O)O)NC(=O)[C@H](Cc2c[nH]cn2)NC(=O)[C@H](Cc2c[nH]c3ccccc23)NC(=O)[C@H](CC(N)=O)NC(=O)[C@H](CC(N)=O)NC1=O [compound 105, Ac-W-T-I-C(3)-N-N-W-H-D-C(3)-W-(aMe-P)-[D-Lys(DOTA)]-NH2] (Ac-WTICNNWHDCW[αMeP][dK](DOTA)-NH2; disulfide 4-10) | 1 to 10
CC(=O)N[C@@H](Cc1c[nH]c2ccccc12)C(=O)N[C@H](C(=O)N[C@H](C(=O)N[C@H]1CSSC[C@@H](C(=O)N[C@@H](Cc2c[nH]c3ccccc23)C(=O)N2CCC[C@H]2C(=O)N[C@H](CCCCNC(=O)CN2CCN(CC(=O)O)CCN(CC(=O)O)CCN(CC(=O)O)CC2)C(N)=O)NC(=O)[C@H](CC(=O)O)NC(=O)[C@H](Cc2c[nH]cn2)NC(=O)[C@H](Cc2c[nH]c3ccccc23)NC(=O)[C@H](CC(N)=O)NC(=O)[C@H](CC(N)=O)NC1=O)C1CCCCC1)[C@@H](C)O [compound 106, Ac-W-T-(Chg)-C(3)-N-N-W-H-D-C(3)-W-P-[D-Lys(DOTA)]-NH2] (Ac-WT[Chg]CNNWHDCWP[dK](DOTA)-NH2; disulfide 4-10) | < 1

The next lines start with the values.

Kd [nM] | Structure (SMILES)
10 to 100 | CC[C@H](C)[C@H](NC(=O)[C@@H](NC(=O)[C@H](Cc1c[nH]c2ccccc12)NC(C)=O)[C@@H](C)O)C(=O)N[C@H]1CSSC[C@@H](C(=O)N[C@@H](Cc2c[nH]c3ncccc23)C(=O)N2CCC[C@H]2C(=O)N[C@H](CCCCNC(=O)CN2CCN(CC(=O)O)CCN(CC(=O)O)CCN(CC(=O)O)CC2)C(N)=O)NC(=O)[C@H](CC(=O)O)NC(=O)[C@H](Cc2cnc[nH]2)NC(=O)[C@H](Cc2c[nH]c3ccccc23)NC(=O)[C@H](CC(N)=O)NC(=O)[C@H](CC(N)=O)NC1=O [compound 87, Ac-W-T-I-C(3)-N-N-W-H-D-C(3)-(7Aza-W)-P-[D-Lys(DOTA)]-NH2] (Ac-WTICNNWHDC[Trp(7-aza)]P[dK](DOTA)-NH2; disulfide 4-10)
1 to 10 | CC[C@H](C)[C@H](NC(=O)[C@@H](NC(=O)[C@H](Cc1c[nH]c2ccccc12)NC(C)=O)[C@@H](C)O)C(=O)N[C@H]1CSSC[C@@H](C(=O)NC(Cc2c[nH]c3ccccc23)C(=O)N2CCC[C@H]2C(=O)N[C@H](CCCCNC(=O)COCCOCCOCCOCCOCCOCCOCCOCCNC(=O)CN2CCN(CC(=O)O)CCN(CC(=O)O)CCN(CC(=O)O)CC2)C(N)=O)NC(=O)[C@H](CC(=O)O)NC(=O)[C@H](Cc2cnc[nH]2)NC(=O)[C@H](Cc2c[nH]c3ccccc23)NC(=O)[C@H](CC(N)=O)NC(=O)[C@H](CC(N)=O)NC1=O (stereo partly drawn) [compound 89, Ac-W-T-I-C(3)-N-N-W-H-D-C(3)-W-P-(D-Lys)-PEG8-DOTA-NH2] (Ac-WTICNNWHDC[ξW]P[dK](X2)-NH2; disulfide 4-10)
10 to 100 | CCCCCC(=O)NCC[C@@H]1NC(=O)[C@H](Cc2c[nH]c3ccccc23)NC(=O)[C@H](CC(N)=O)NC(=O)[C@H](CC(N)=O)NC(=O)[C@@H](NC(=O)[C@@H](NC(=O)[C@@H](NC(=O)[C@H](Cc2c[nH]c3ccccc23)NC(C)=O)[C@@H](C)O)[C@@H](C)CC)CSSC[C@@H](C(=O)N[C@@H](Cc2c[nH]c3ccccc23)C(=O)N2CCC[C@H]2C(=O)N[C@H](CCCCNC(=O)CN2CCN(CC(=O)O)CCN(CC(=O)O)CCN(CC(=O)O)CC2)C(N)=O)NC(=O)[C@H](CC(=O)O)NC1=O [compound 92, Ac-W-T-I-C(3)-N-N-W-(DAB-4-NHCOC5H11)-D-C(3)-W-P-[D-Lys(DOTA)]-NH2] (Ac-WTICNNW[Dab](Hexanoyl)DCWP[dK](DOTA)-NH2; disulfide 4-10)
10 to 100 | CCCCCCCC(=O)NCC[C@@H]1NC(=O)[C@H](Cc2c[nH]c3ccccc23)NC(=O)[C@H](CC(N)=O)NC(=O)[C@H](CC(N)=O)NC(=O)[C@@H](NC(=O)[C@@H](NC(=O)[C@@H](NC(=O)[C@H](Cc2c[nH]c3ccccc23)NC(C)=O)[C@@H](C)O)[C@@H](C)CC)CSSC[C@@H](C(=O)N[C@@H](Cc2c[nH]c3ccccc23)C(=O)N2CCC[C@H]2C(=O)N[C@H](CCCCNC(=O)CN2CCN(CC(=O)O)CCN(CC(=O)O)CCN(CC(=O)O)CC2)C(N)=O)NC(=O)[C@H](CC(=O)O)NC1=O [compound 93, Ac-W-T-I-C(3)-N-N-W-(DAB-4-NHCOC7H15)-D-C(3)-W-P-[D-Lys(DOTA)]-NH2] (Ac-WTICNNW[Dab](Octanoyl)DCWP[dK](DOTA)-NH2; disulfide 4-10)
10 to 100 | CC(=O)N[C@@H](Cc1c[nH]c2ccccc12)C(=O)N[C@H](C(=O)N[C@@H](Cc1cccc2ccccc12)C(=O)N[C@H]1CSSC[C@@H](C(=O)N[C@@H](Cc2c[nH]c3ccccc23)C(=O)N2CCC[C@H]2C(=O)N[C@H](CCCCNC(=O)CN2CCN(CC(=O)O)CCN(CC(=O)O)CCN(CC(=O)O)CC2)C(N)=O)NC(=O)[C@H](CC(=O)O)NC(=O)[C@H](Cc2c[nH]cn2)NC(=O)[C@H](Cc2c[nH]c3ccccc23)NC(=O)[C@H](CC(N)=O)NC(=O)[C@H](CC(N)=O)NC1=O)[C@@H](C)O [compound 107, Ac-W-T-(1Nal)-C(3)-N-N-W-H-D-C(3)-W-P-[D-Lys(DOTA)]-NH2] (Ac-WT[1Nal]CNNWHDCWP[dK](DOTA)-NH2; disulfide 4-10)
